Experimental data: ChEMBL document CHEMBL5042513, “Discovery of 2H-chromone-4-one based sulfonamide derivatives as potent retinoic acid receptor-related orphan receptor γt inverse agonists” (Eur J Med Chem, 2022)

Test system: not listed separately
Assay: in vitro
Conditions: human, liver microsomes
Description: Metabolic stability in human liver microsomes assessed as half life at 10 uM in presence of NADPH by HPLC-MS/MS analysis

half-life at 10 µM [min]	SMILES
59	Cc1nc(N2CCOCC2)ccc1N(CC(C)C)S(=O)(=O)c1ccc2c(c1)C(=O)CC(C1CCOCC1)O2 (stereo not drawn)
22.3	CCc1ccc(N(CC2CC2)S(=O)(=O)c2ccc3c(c2)C(=O)CC(C2CCOCC2)O3)cc1 (stereo not drawn)
0.7	CC(C)CN(c1ccc(F)cc1)S(=O)(=O)c1ccc2c(c1)C(=O)CC(C1CCOCC1)O2 (stereo not drawn)
6.2	Cc1ccc(N(C2CCC2)S(=O)(=O)c2ccc3c(c2)C(=O)CC(C2CCOCC2)O3)c(C)c1 (stereo not drawn)
12.8	CC(C)CN(c1ccc(N(C)C)cc1)S(=O)(=O)c1ccc2c(c1)C(=O)CC(C1CCOCC1)O2 (stereo not drawn)

Test system: not listed separately
Assay: in vivo
Conditions: mouse, iv, 0.3 mg/kg

Tmax at 24 h [min]	SMILES
61.2	Cc1nc(N2CCOCC2)ccc1N(CC(C)C)S(=O)(=O)c1ccc2c(c1)C(=O)CC(C1CCOCC1)O2 (stereo not drawn)

Species on record: Mus musculus
Assay: animal or person
Conditions: BALB/c, po, 312 h, read-out: INH
Description: Protection against imiquimod-induced psoriasis model of BALB/c mouse assessed as inhibition of psoriasis clinical score at 20 mg/kg, po administered for 13 days

SMILES	inhibition in vivo at 20 mg/kg [%]
Cc1nc(N2CCOCC2)ccc1N(CC(C)C)S(=O)(=O)c1ccc2c(c1)C(=O)CC(C1CCOCC1)O2 (stereo not drawn)	77.7

Test system: not listed separately
Assay: in vivo
Conditions: mouse, iv, 0.3 mg/kg
Remark: another data set of the same source

clearance at 24 h [mL/min/kg]	SMILES
30.2	Cc1nc(N2CCOCC2)ccc1N(CC(C)C)S(=O)(=O)c1ccc2c(c1)C(=O)CC(C1CCOCC1)O2 (stereo not drawn)

Test system: not listed separately
Assay: in vivo
Conditions: mouse, po, 1 mg/kg

bioavailability at 24 h [%]	SMILES
47	Cc1nc(N2CCOCC2)ccc1N(CC(C)C)S(=O)(=O)c1ccc2c(c1)C(=O)CC(C1CCOCC1)O2 (stereo not drawn)

Test system: not listed separately
Assay: Metabolic stability in human liver microsomes assessed as parent compound remaining level at 10 uM in presence of NADPH incubated for 60 mins by HPLC-MS/MS analysis
Conditions: not given

remaining at 1 h, 10 µM [%]	SMILES
50.2	Cc1nc(N2CCOCC2)ccc1N(CC(C)C)S(=O)(=O)c1ccc2c(c1)C(=O)CC(C1CCOCC1)O2 (stereo not drawn)
23	CCc1ccc(N(CC2CC2)S(=O)(=O)c2ccc3c(c2)C(=O)CC(C2CCOCC2)O3)cc1 (stereo not drawn)
0.2	CC(C)CN(c1ccc(F)cc1)S(=O)(=O)c1ccc2c(c1)C(=O)CC(C1CCOCC1)O2 (stereo not drawn)
4.5	Cc1ccc(N(C2CCC2)S(=O)(=O)c2ccc3c(c2)C(=O)CC(C2CCOCC2)O3)c(C)c1 (stereo not drawn)
0.2	CCc1ccc(N(CC(C)C)S(=O)(=O)c2ccc(OCC3CCOCC3)c(CO)c2)cc1 [GSK2981278]
11.5	CC(C)CN(c1ccc(N(C)C)cc1)S(=O)(=O)c1ccc2c(c1)C(=O)CC(C1CCOCC1)O2 (stereo not drawn)

Test system: not listed separately
Assay: in vivo
Conditions: mouse, po, 1 mg/kg
Remark: another data set of the same source

AUC(0-t) at 24 h [ng·h/mL]	SMILES
212	Cc1nc(N2CCOCC2)ccc1N(CC(C)C)S(=O)(=O)c1ccc2c(c1)C(=O)CC(C1CCOCC1)O2 (stereo not drawn)

Test system: not listed separately
Assay: in vivo
Conditions: mouse, iv, 0.3 mg/kg
Remark: another data set of the same source

Vd at 24 h [L/kg]	SMILES
1.62	Cc1nc(N2CCOCC2)ccc1N(CC(C)C)S(=O)(=O)c1ccc2c(c1)C(=O)CC(C1CCOCC1)O2 (stereo not drawn)

Test system: not listed separately
Assay: in vivo
Conditions: mouse, iv, 0.3 mg/kg
Remark: another data set of the same source

half-life at 24 h [min]	SMILES
56.4	Cc1nc(N2CCOCC2)ccc1N(CC(C)C)S(=O)(=O)c1ccc2c(c1)C(=O)CC(C1CCOCC1)O2 (stereo not drawn)

Test system: not listed separately
Assay: Lipophilicity, logD of the compound at pH 7.4
Conditions: buffer

logD	SMILES
4.5	CCc1ccc(N(CC(C)C)S(=O)(=O)c2ccc3oc(C4CCOCC4)cc(=O)c3c2)cc1
3.04	Cc1nc(N2CCOCC2)ccc1N(CC(C)C)S(=O)(=O)c1ccc2c(c1)C(=O)CC(C1CCOCC1)O2 (stereo not drawn)
2.21	CCc1ccc(N(CC(C)C)S(=O)(=O)c2ccc3c(c2)C(=O)CC(C2CCNCC2)O3)cc1 (stereo not drawn)
3.5	O=C1CC(C2CCOCC2)Oc2ccc(S(=O)(=O)N3CCCC3c3ccccc3C(F)(F)F)cc21 (stereo not drawn)
1.77	CCc1ccc(N(CC(C)C)S(=O)(=O)c2ccc3cc(OCC4CCOCC4)c(C(=O)O)cc3c2)cc1
4.01	CC(C)CN(c1cc2ccccc2s1)S(=O)(=O)c1ccc2c(c1)C(=O)CC(C1CCOCC1)O2 (stereo not drawn)
5.1	CCc1ccc(N(CC(C)C)S(=O)(=O)c2ccc3cc(OCC4CCOCC4)c(CO)cc3c2)cc1
2.75	Cc1ccc(NS(=O)(=O)c2ccc3c(c2)C(=O)CC(C2CCOCC2)O3)c(C)c1 (stereo not drawn)
5.13	CCc1ccc(N(CC(C)C)S(=O)(=O)c2ccc3c(c2)C(=O)CC(C2CCN(C(=O)C4CCCC4)CC2)O3)cc1 (stereo not drawn)
3.62	CC(C)CN(c1ccc(F)cc1F)S(=O)(=O)c1ccc2c(c1)C(=O)CC(C1CCOCC1)O2 (stereo not drawn)
4.03	CC(C)CN(C1CCc2ccc(F)cc21)S(=O)(=O)c1ccc2c(c1)C(=O)CC(C1CCOCC1)O2 (stereo not drawn)
4.97	CC(C)CN(c1ccc(C(C)(C)C)cc1)S(=O)(=O)c1ccc2c(c1)C(=O)CC(C1CCOCC1)O2 (stereo not drawn)
3.78	CCc1ccc(N(C2CCC2)S(=O)(=O)c2ccc3c(c2)C(=O)CC(C2CCOCC2)O3)cc1 (stereo not drawn)
3.97	CCc1ccc(N(CC(F)(F)F)S(=O)(=O)c2ccc3c(c2)C(=O)CC(C2CCOCC2)O3)cc1 (stereo not drawn)
4.71	CCc1ccc(N(CC(C)C)S(=O)(=O)c2ccc3c(c2)C(=O)CC(C2(C)CCOCC2)O3)cc1 (stereo not drawn)
3.77	CCc1ccc(N(CC2CC2)S(=O)(=O)c2ccc3c(c2)C(=O)CC(C2CCOCC2)O3)cc1 (stereo not drawn)
3.48	CC(C)CN(c1ccc(F)cc1)S(=O)(=O)c1ccc2c(c1)C(=O)CC(C1CCOCC1)O2 (stereo not drawn)
3.86	Cc1ccc(N(C2CCC2)S(=O)(=O)c2ccc3c(c2)C(=O)CC(C2CCOCC2)O3)c(C)c1 (stereo not drawn)
3.6	CC(C)CN(c1ccc(N(C)C)cc1)S(=O)(=O)c1ccc2c(c1)C(=O)CC(C1CCOCC1)O2 (stereo not drawn)

Test system: not listed separately
Assay: in vivo
Conditions: mouse, po, 1 mg/kg
Remark: another data set of the same source

Tmax at 24 h [min]	SMILES
95.4	Cc1nc(N2CCOCC2)ccc1N(CC(C)C)S(=O)(=O)c1ccc2c(c1)C(=O)CC(C1CCOCC1)O2 (stereo not drawn)

Test system: not listed separately
Assay: in vivo
Conditions: mouse, po, 1 mg/kg
Remark: another data set of the same source

half-life at 24 h [min]	SMILES
88.2	Cc1nc(N2CCOCC2)ccc1N(CC(C)C)S(=O)(=O)c1ccc2c(c1)C(=O)CC(C1CCOCC1)O2 (stereo not drawn)

Target: T1, Nuclear receptor ROR-gamma (Homo sapiens, UniProt P51449)
T1 sequence (P51449 whole entry): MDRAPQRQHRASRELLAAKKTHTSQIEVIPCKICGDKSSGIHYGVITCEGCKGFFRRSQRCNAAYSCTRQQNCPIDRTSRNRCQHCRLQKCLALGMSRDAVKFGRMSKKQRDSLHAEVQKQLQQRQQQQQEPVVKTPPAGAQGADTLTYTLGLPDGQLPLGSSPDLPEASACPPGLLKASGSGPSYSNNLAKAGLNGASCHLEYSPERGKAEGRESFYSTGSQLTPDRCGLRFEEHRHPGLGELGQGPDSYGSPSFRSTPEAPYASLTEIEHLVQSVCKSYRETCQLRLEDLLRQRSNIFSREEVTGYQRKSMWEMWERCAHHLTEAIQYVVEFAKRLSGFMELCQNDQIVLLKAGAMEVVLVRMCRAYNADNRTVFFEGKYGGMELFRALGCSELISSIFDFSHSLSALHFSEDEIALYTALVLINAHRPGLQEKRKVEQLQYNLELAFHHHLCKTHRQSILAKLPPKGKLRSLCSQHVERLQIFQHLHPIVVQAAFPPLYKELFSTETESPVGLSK
Assay: not given
Conditions: not given

IC50 [µM]	SMILES
> 10	CCc1ccc(N(CC(C)C)S(=O)(=O)c2ccc3cc(OCC4CCOCC4)c(C(=O)O)cc3c2)cc1

Test system: not listed separately
Assay: in vivo
Conditions: mouse, po, 1 mg/kg
Remark: another data set of the same source

AUC(0-inf) at 24 h [ng·h/mL]	SMILES
219	Cc1nc(N2CCOCC2)ccc1N(CC(C)C)S(=O)(=O)c1ccc2c(c1)C(=O)CC(C1CCOCC1)O2 (stereo not drawn)

Species on record: Mus musculus
Assay: animal or person
Conditions: BALB/c, po, 312 h, read-out: INH
Remark: another data set of the same source
Description: Protection against imiquimod-induced psoriasis model of BALB/c mouse assessed as inhibition of psoriasis clinical score at 10 mg/kg, po administered for 13 days

SMILES	inhibition in vivo at 10 mg/kg [%]
Cc1nc(N2CCOCC2)ccc1N(CC(C)C)S(=O)(=O)c1ccc2c(c1)C(=O)CC(C1CCOCC1)O2 (stereo not drawn)	54.5

Test system: not listed separately
Assay: in vivo
Conditions: mouse, iv, 0.3 mg/kg
Remark: another data set of the same source

Cmax at 24 h [ng/mL]	SMILES
75	Cc1nc(N2CCOCC2)ccc1N(CC(C)C)S(=O)(=O)c1ccc2c(c1)C(=O)CC(C1CCOCC1)O2 (stereo not drawn)

Test system: not listed separately
Assay: in vivo
Conditions: mouse, iv, 0.3 mg/kg
Remark: another data set of the same source

AUC(0-inf) at 24 h [ng·h/mL]	SMILES
140	Cc1nc(N2CCOCC2)ccc1N(CC(C)C)S(=O)(=O)c1ccc2c(c1)C(=O)CC(C1CCOCC1)O2 (stereo not drawn)

Test system: not listed separately
Assay: in vivo
Conditions: mouse, iv, 0.3 mg/kg
Remark: another data set of the same source

AUC(0-t) at 24 h [ng·h/mL]	SMILES
135	Cc1nc(N2CCOCC2)ccc1N(CC(C)C)S(=O)(=O)c1ccc2c(c1)C(=O)CC(C1CCOCC1)O2 (stereo not drawn)

Target: T1, Nuclear receptor ROR-gamma
Assay: Displacement of BODIPY from APC-labelled RORgammat LBD (unknown origin) incubated for 1 hrs by binding assay
Conditions: not given

IC50 [µM]	SMILES
> 10	CCc1ccc(N(CC(C)C)S(=O)(=O)c2ccc3cc(OCC4CCOCC4)c(C(=O)O)cc3c2)cc1

Test system: not listed separately
Assay: in vitro
Conditions: human, liver microsomes
Remark: another data set of the same source
Description: Metabolic stability in human liver microsomes assessed as intrinsic clearance at 10 uM in presence of NADPH by HPLC-MS/MS analysis

CLint scaled at 10 µM [mL/min/kg]	SMILES
21.1	Cc1nc(N2CCOCC2)ccc1N(CC(C)C)S(=O)(=O)c1ccc2c(c1)C(=O)CC(C1CCOCC1)O2 (stereo not drawn)
55.8	CCc1ccc(N(CC2CC2)S(=O)(=O)c2ccc3c(c2)C(=O)CC(C2CCOCC2)O3)cc1 (stereo not drawn)
1760	CC(C)CN(c1ccc(F)cc1)S(=O)(=O)c1ccc2c(c1)C(=O)CC(C1CCOCC1)O2 (stereo not drawn)
202	Cc1ccc(N(C2CCC2)S(=O)(=O)c2ccc3c(c2)C(=O)CC(C2CCOCC2)O3)c(C)c1 (stereo not drawn)
1610	CCc1ccc(N(CC(C)C)S(=O)(=O)c2ccc(OCC3CCOCC3)c(CO)c2)cc1 [GSK2981278]
98.5	CC(C)CN(c1ccc(N(C)C)cc1)S(=O)(=O)c1ccc2c(c1)C(=O)CC(C1CCOCC1)O2 (stereo not drawn)

Test system: not listed separately
Assay: in vivo
Conditions: mouse, po, 1 mg/kg
Remark: another data set of the same source

Cmax at 24 h [ng/mL]	SMILES
82	Cc1nc(N2CCOCC2)ccc1N(CC(C)C)S(=O)(=O)c1ccc2c(c1)C(=O)CC(C1CCOCC1)O2 (stereo not drawn)
